Laboratory results from US20100144652A1, “COMPOSITION COMPRISING A GLYCOLYTIC INHIBITOR AND A RING SYSTEM COMPRISING A SULPHAMATE GROUP FOR THE TREATMENT OF CANCER” (Sterix Limited, priority 2007, published 2010).
pIC50: −log10 of the molar value. Entries after “also recorded” stand apart in the source; their conditions may differ. Like-named read-outs stand apart in the source and are kept apart here.

What was measured:
[1] = cited from earlier work
breast cancer cells = conditions: Raobaikady et al., 2003; cited from earlier work
MCF-7 cells [2] = experiment: Cell morphology (microscopy); assay type: cell-based; conditions: MCF-7, STX140 0.5 μM, 2DG 8 mM, 96 h, normoxia
Description: (§1) Cells were examined using a Zeiss inverted microscope fitted with a 20× and 40× Plan-Neofluor objective, and analysed through an Axiovision imaging system attached to the microscope.

LNCaP cells [3] = experiment: Cell morphology (microscopy); assay type: cell-based; conditions: STX140 0.5 μM, 2DG 8 mM, 96 h, normoxia
Description: as §1

MCF-7 cells [4] = experiment: Proliferation assay (Alamar blue, microtiter plate); assay type: cell-based; conditions: Homo sapiens; for inhibition at 0.5 µM / inhibition at 8000 µM: MCF7, 72 h; for inhibition at 8000 µM: MCF-7, 2DG alone 8 mM, 72 h, read-out: inhibition of cell growth
Description: (§2) MCF-7 and LNCaP cells were obtained from the American Tissue Culture Collection (ATCC). Cells were cultured in the following supplements, obtained from Sigma: RPMI 1640 with 10% foetal bovine serum, 1% L-glutamine, 1% MEM non-essential amino acids, 1% sodium bicarbonate solution, LNCaP cells also required 1% sodium pyruvate. Cells were maintained in an incubator at 37° C. under 5% CO2 and 95% air atmosphere.
(§3) MCF-7 and LNCaP cells were seeded at 3000 cells/well or 5000 cells/well respectively, in 96 well plates. Compounds were added 4 hours after seeding of cells. […]
(§4) An Innova co-48 CO2 humidified incubator (Newbrunswick Scientific, St. Albans, U.K.) was used to study the effects of 2DG and STX140 on cells under hypoxic conditions. Oxygen was maintained at 1%, CO2 5% and temperature at 37° C.

LNCaP cells [5] = experiment: as above; assay type: cell-based; conditions: Homo sapiens; for inhibition at 8000 µM: 2DG alone 8 mM, read-out: inhibition of cell growth
Description: as §2, §3, §4

MCF-7 cells [6] = conditions: MCF-7, previously calculated by Day and Newman; read-out: IC50, inhibition of proliferation; cited from earlier work
HUVEC cells = conditions: Newman et al., 2004; cited from earlier work
p-glycoprotein = p-glycoprotein (Homo sapiens, UniProt P08183); conditions: Suzuki, 2003; cited from earlier work
Chain of p-glycoprotein (P08183 whole entry): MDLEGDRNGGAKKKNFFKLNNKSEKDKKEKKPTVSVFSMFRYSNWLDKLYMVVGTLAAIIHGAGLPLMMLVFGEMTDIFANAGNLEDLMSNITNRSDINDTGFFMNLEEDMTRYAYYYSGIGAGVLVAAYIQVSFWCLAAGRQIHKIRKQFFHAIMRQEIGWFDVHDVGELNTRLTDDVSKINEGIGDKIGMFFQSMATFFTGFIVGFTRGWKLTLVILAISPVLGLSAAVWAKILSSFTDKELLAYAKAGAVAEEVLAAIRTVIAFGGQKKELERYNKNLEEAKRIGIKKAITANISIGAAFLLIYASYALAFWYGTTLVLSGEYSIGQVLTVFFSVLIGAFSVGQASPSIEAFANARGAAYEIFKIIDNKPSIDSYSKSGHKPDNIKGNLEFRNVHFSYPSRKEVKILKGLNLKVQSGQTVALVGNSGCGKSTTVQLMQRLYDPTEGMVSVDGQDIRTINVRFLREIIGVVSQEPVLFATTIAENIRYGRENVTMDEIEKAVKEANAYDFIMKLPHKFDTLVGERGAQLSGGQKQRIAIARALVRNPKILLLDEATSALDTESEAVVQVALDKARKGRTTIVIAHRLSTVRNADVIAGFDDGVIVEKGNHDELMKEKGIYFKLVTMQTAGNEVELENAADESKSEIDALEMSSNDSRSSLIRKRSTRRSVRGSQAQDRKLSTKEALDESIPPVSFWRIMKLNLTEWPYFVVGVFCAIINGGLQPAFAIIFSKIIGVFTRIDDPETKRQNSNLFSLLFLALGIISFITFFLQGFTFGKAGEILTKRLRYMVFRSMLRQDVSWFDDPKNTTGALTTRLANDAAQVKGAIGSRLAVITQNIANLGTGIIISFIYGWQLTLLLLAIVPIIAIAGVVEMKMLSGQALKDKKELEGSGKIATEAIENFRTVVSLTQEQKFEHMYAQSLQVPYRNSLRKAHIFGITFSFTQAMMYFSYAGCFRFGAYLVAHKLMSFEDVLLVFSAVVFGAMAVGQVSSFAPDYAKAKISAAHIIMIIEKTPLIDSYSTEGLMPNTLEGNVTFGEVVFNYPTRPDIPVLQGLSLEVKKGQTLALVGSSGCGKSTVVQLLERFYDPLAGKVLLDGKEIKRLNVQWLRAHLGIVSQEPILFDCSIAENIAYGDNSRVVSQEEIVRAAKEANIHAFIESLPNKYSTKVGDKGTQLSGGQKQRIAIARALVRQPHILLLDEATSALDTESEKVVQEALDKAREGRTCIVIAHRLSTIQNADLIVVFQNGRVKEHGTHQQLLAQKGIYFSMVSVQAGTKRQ

vessel formation = conditions: novel co-culture model system, Newman et al., 2004; cited from earlier work
MCF-7 tumours = experiment: In vivo tumour xenograft model, MCF-7 cell tumours; conditions: athymic nude mice, STX140 5 mg/kg p.o. daily, 2DG 2 g/kg i.p. daily, 28 days, compared to control
Description: Intact, ovariectomized, athymic, female MF-1 nude mice (nu-/nu-) were purchased from Harlan (Bicester, Oxon, UK) at 5 weeks of age (˜20-25 g in weight). All experiments were carried out under conditions that complied with institutional guidelines. Animals were kept in a 12-hour light/12-hour dark cycle and given food and water ad libitum. Monolayers of MCF-7 cells were removed by trypsinization, and the resultant cell suspension was centrifuged for 5 min. at 1,000×g and then resuspended in ice-cold matrigel (BD Biosciences). Five million MCF-7 cells were injected s.c. into the right flank of the animals. The tumours were allowed to grow for 2 weeks, when the tumours reached 100-150 mm^3 in volume, mice were randomly divided into four treatment groups: 1) vehicle (10% tetrahydrofuran; 90% propylene glycol, […] oral)+saline i.p. 200 ml; 2) vehicle+2DG (2 g/kg) i.p. 200 ml; 3) STX140 (5 mg/kg) […] oral+saline i.p. 200 ml; 4) STX140 (5 mg/kg) […] oral+2DG (2 g/kg) i.p. 200 ml. All treatments were administered daily for 4 weeks, […]. Throughout the study, mice were weighed and tumour measurements were taken on a weekly basis. Tumour volumes were calculated using the formula: length×width^2/2. At the end of the study, tumours were collected for immunohistochemical analysis.

MCF-7 cells [7] = experiment: Measurement of ATP (ATPlite assay); assay type: cell-based; conditions: for ATP levels: MCF-7, 72 h, normoxia or hypoxia, 2DG 8 mM, STX140 0.1 μM-1 μM, vs untreated normoxic controls
Description: as §4
(§5) MCF-7 and LNCaP cells were seeded at 3000 cells/well or 5000 cells/well respectively, in 96 well plates. Compounds were added 4 hours following seeding of cells. The ATPlite assay procedure was carried out according to manufacturer's instructions (Perkin Elmer, Beaconsfield, U.K.) and ATP measured 72 hrs later using a FluoStar Optima Plate reader.

LNCaP cells [8] = experiment: Measurement of ATP (ATPlite assay); assay type: cell-based; conditions: 72 h, 2DG 8 mM; for ATP levels: normoxia or hypoxia, STX140 0.1 μM-1 μM, vs untreated normoxic controls
Description: as §4, §5

von Willebrand's factor = von Willebrand's factor immunohistochemistry of xenograft sections (vessel density); assay type: in vivo, mice; conditions: sections of MCF-7 xenografts, STX140 5 mg/kg p.o. daily, 2DG 2 g/kg i.p. daily
LNCaP cells [9] = conditions: previously calculated by Day and Newman, read-out: IC50, inhibition of proliferation; cited from earlier work
[10] = system: r^□ cells which have lost their mitochondrial DNA; conditions: Liu et al., 2001; cited from earlier work
[11] = cited from earlier work; remark: listed apart in the source
steroid sulphatase = target: T1, steroid sulphatase (Homo sapiens, UniProt P08842); conditions: compared with EMATE; cited from earlier work
T1 sequence (P08842 22-583): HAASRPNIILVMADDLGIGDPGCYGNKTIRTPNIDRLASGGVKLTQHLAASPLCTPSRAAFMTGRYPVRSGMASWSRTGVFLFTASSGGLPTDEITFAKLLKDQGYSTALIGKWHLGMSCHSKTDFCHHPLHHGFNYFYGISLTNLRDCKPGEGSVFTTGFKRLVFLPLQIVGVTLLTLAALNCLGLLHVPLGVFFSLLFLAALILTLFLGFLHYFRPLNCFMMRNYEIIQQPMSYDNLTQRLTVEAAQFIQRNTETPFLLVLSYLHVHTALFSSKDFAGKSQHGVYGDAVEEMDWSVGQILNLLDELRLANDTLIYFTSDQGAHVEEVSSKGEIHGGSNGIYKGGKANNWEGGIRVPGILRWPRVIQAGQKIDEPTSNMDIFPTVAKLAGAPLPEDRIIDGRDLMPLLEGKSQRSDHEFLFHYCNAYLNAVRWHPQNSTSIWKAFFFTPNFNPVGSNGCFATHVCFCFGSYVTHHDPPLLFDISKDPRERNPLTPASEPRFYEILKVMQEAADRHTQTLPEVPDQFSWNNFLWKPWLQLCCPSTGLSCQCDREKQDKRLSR

In the case of COc1cc2c(cc1O)CC[C@@H]1[C@@H]2CC[C@]2(C)[C@@H](O)CC[C@@H]12 [2-MeOE2, 2-methoxyoestradiol, reference compound], the oral bioavailability ([1]; in vivo, po) is listed as “very poor oral bioavailability”.
In the case of COc1cc2c(cc1OS(N)(=O)=O)CCC1C2CC[C@]2(C)C(OS(N)(=O)=O)CCC12 (stereo partly shown) [STX140, 2-Methoxyestradiol-3,17-O,O-bis-sulfamate], the “potency as inhibitor of breast cancer cells compared to 2-MeOE2” value (breast cancer cells) is given as 6 times, the cell morphology (MCF-7 cells [2]) is given as “shrivelled appearance” and the cell morphology (LNCaP cells [3]) is given as “shrivelled appearance”. The inhibition at 0.5 µM (MCF-7 cells [4]; read-out: inhibition of cell proliferation, MCF-7, STX140 0.5 μM, hypoxia, 72 h, vs normoxic untreated controls) was 48%, the inhibition at 0.5 µM (MCF-7 cells [4]; read-out: inhibition of cell proliferation, MCF-7, STX140 0.5 μM, normoxia, 72 h, vs normoxic untreated controls) was 45% and the pIC50 (LNCaP cells [5]; 72 h, read-out: IC50, inhibition of proliferation, LNCaP, hypoxic, 72 h) was 6.50. The pIC50 (LNCaP cells [5]; 72 h, read-out: IC50, inhibition of proliferation, LNCaP, normoxic, 72 h) was 6.53, the inhibition at 0.5 µM (LNCaP cells [5]; 72 h, read-out: inhibition of cell proliferation) was 65% and the pIC50 (MCF-7 cells [6]) was 6.60. For the same molecule, the “inhibition of proliferation of HUVEC cells compared to 2-MeOE2” value (HUVEC cells) was 60 fold, the substrate for p-glycoprotein (p-glycoprotein) was “not a substrate for p-glycoprotein” and the “activity as inhibitor of vessel formation compared to 2-MeOE2” value (vessel formation) was 10-13 times. The “growth of MCF-7 tumours” value (MCF-7 tumours; 5 mg/kg) was “significantly inhibited”, the ATP levels (MCF-7 cells [7]) was “drops significantly” and the ATP levels (LNCaP cells [8]) was “drops significantly”. For the same molecule, the “von Willebrand's factor staining for endothelial cells (blood vessels)” value (von Willebrand's factor; 5 mg/kg) was “decrease in blood vessels; also recorded: significant reduction”, the pIC50 (LNCaP cells [9]) was 6.59 and the oral bioavailability ([1]; literature (Ireson 2004)) was “orally bioavailable”.
In the case of O=CC[C@@H](O)[C@H](O)[C@H](O)CO [2DG, 2-deoxy-D-glucose], the “sensitivity of cells lacking mitochondrial DNA relative to wt cells” value [10] is listed as 10 times, the cell morphology (MCF-7 cells [2]) is listed as “cells appear to swell up” and the cell morphology (LNCaP cells [3]) is listed as “cells appear to swell up”. It also gave an inhibition at 8000 µM (MCF-7 cells [4]; hypoxic) of 70%, an inhibition at 8000 µM (MCF-7 cells [4]; normoxic) of 50% and a pIC50 (MCF-7 cells [4]; MCF7, 120 h, MCF-7, 5 day period, normoxic conditions, read-out: IC50, inhibition of proliferation) of 2.09. It also gave an inhibition at 8000 µM (LNCaP cells [5]; 72 h, hypoxic, 72 h) of 75%, an inhibition at 8000 µM (LNCaP cells [5]; 72 h, normoxic, 72 h) of 50% and a pIC50 (LNCaP cells [5]; 120 h, 5 day period, normoxic conditions, read-out: IC50, inhibition of proliferation) of 2.17. The “growth of MCF-7 tumours” value (MCF-7 tumours) was “did not significantly inhibit tumour growth”, the “ATP per living cell” value (MCF-7 cells [7]; MCF-7, 2DG 8 mM, 72 h, vs untreated controls) was “significantly decreases ATP” and the ATP levels (MCF-7 cells [7]) was “decreases ATP”. For the same molecule, the “ATP per living cell” value (LNCaP cells [8]; vs untreated controls) was “significantly decreases ATP”, the ATP levels (LNCaP cells [8]) was “decreases ATP” and the “von Willebrand's factor staining for endothelial cells (blood vessels)” value (von Willebrand's factor) was “no significant effect”.
For C[C@]12CC[C@@H]3c4ccc(OS(N)(=O)=O)cc4CC[C@H]3[C@@H]1CCC2=O [EMATE, oestrone-3-O-sulphamate], the “oral uterotrophic activity relative to estradiol” value ([11]; rats, oral) is given as 100 times.
For COc1cc2c(cc1OS(N)(=O)=O)CC[C@@H]1[C@@H]2CC[C@]2(C)C(=O)CC[C@@H]12 [2-methoxyoestrone-3-O-sulphamate], the “potency as steroid sulphatase inhibitor” value (steroid sulphatase) is listed as “equipotent with EMATE” and the oestrogenicity ([11]; rat, in vivo) is listed as “devoid of oestrogenicity”.
